Assay [1] concerns E. coli (ATCC # 112229). In words: Time kill activity (ASTM E 2315), log reduction. The class given is cell-based, Escherichia coli. The conditions noted are these: 30 seconds. On the procedure:
(§1) In this test, a diluted aliquot of the composition is brought into contact with a known population of test bacteria for a specified time period at a specified temperature. The test composition is neutralized at the end of the time period, which arrests the antimicrobial activity of the composition. The percent or, alternatively, log reduction from the original bacteria population is calculated. In general, the time kill method is known to those skilled in the art. […] The choice of which concentration to use is at the discretion of the investigator, and suitable concentrations are readily determined by those skilled in the art. All testing if performed in triplicate, the results are combined, and the average log reduction is reported. • (c) The choice of contact time period also is at the discretion of the investigator. Any contact time period can be chosen. Typical contact times range from 10 second to 5 minutes, with 30 seconds and 1 minute being typical contact times. The contact temperature also can be any temperature, typically room temperature, or about 25 degrees Celsius. • (d) The microbial suspension, or test inoculum, is prepared by growing a microbial culture on any appropriate solid media (e.g., agar). The microbial population then is washed from the agar with sterile physiological saline and the population of the microbial suspension is adjusted to about 10^8 colony forming units per ml (cfu/ml). • (e) The table below lists the test microbial cultures used in the following tests and includes the name of the bacteria, the ATCC (American Type Culture Collection) identification number, and the abbreviation for the name of the organism used hereafter.
(§2) The log reduction is calculated using the formula: Log reduction=log10(numbers control)−log10(test sample survivors). Foam Height Determination

The subject of assay [2] is S. aureus (ATCC # 6538). Put plainly: Time kill activity (ASTM E 2315), log reduction. In kind it is cell-based. The conditions noted are these: 30 seconds. As to the method: as §1, §2
Setting [3] is: active at 0.65% w/w in the composition of formulation example 15, pH 6.25.
Where [4] appears, read: active at 2% w/w in the composition of formulation example 15, pH 6.25.
[5] abbreviates: active at 4% w/w in the composition of formulation example 15, pH 6.25.

Turning to `CC(C)(C)CC(C)(C)c1ccc(OCCOCC[N+](C)(C)Cc2ccccc2)cc1` [Benzethonium Chloride], the “E. coli log reduction” value in assay [1] (setting [3]) is recorded as above 5.73. Further, the “S. Aureus log reduction” value in assay [2] (setting [3]) is recorded as above 5.39.

`N=C(NCCCCCCNC(=N)NC(=N)Nc1ccc(Cl)cc1)NC(=N)Nc1ccc(Cl)cc1.O=C(O)[C@H](O)[C@@H](O)[C@H](O)[C@H](O)CO.O=C(O)[C@H](O)[C@@H](O)[C@H](O)[C@H](O)CO` [Chlorohexidine Gluconate]: the “E. coli log reduction” value in assay [1] (setting [4]) and in assay [1] (setting [5]) was above 5.73 throughout. For the same compound, the “S. Aureus log reduction” value in assay [2] (setting [4]) and in assay [2] (setting [5]) was above 5.39 throughout.

On to `CCCCCCCCCC[N+](C)(C)CCCCCCCCCC.[Cl-]` [Didecyl Dimethyl Ammonium Chloride], for which, in assay [1] (setting [3]), the “E. coli log reduction” value is on record as above 5.73. Moreover, the “S. Aureus log reduction” value in assay [2] (setting [3]) is above 5.39.

Polyhexamethylene Biguanide: the “E. coli log reduction” value in assay [1] (setting [3]) is above 5.73. Also, the “S. Aureus log reduction” value in assay [2] (setting [3]) is recorded as 3.10.

For the origin of these results see US10517806B2, “Antimicrobial foaming compositions containing cationic active ingredients” (ECOLAB USA INC., priority 2014, dated 2019).
